Legend:
Clostridium septicum = assay: MIC anaerobic bacteria, agar-dilution; type: cell-based; conditions: Clostridium septicum 1128
Streptococcus pyogenes = assay: MIC aerobic bacteria, standard agar-dilution assay; type: cell-based; conditions: Streptococcus pyogenes C203, 24 hours
[1] = system: Fusobacterium necrophorum; assay: MIC anaerobic bacteria, agar-dilution; type: cell-based; conditions: Fusobacterium necrophorum 6054A
Bacteroides vulgatis = assay: MIC anaerobic bacteria, agar-dilution; type: cell-based; conditions: Bacteroides vulgatis 1211
S. pyogenes = assay: In vivo oral activity against S. pyogenes in mice
Peptococcus prevoti = assay: MIC anaerobic bacteria, agar-dilution; type: cell-based; conditions: Peptococcus prevoti 1281
[2] = system: Bacteroides thetaiotaomicron; assay: MIC anaerobic bacteria, agar-dilution; type: cell-based; conditions: Bacteroides thetaiotaomicron 1438
Clostridium perfringens = type: cell-based; conditions: Clostridium perfringens 81; agar-dilution
Propionibacterium acnes [3] = assay: MIC against Propionibacterium acnes strains, 24-hour agar-dilution; type: cell-based
Source text: Antibiotic A41030 factors A, B and C have been tested and found to be active against a genus of anaerobic bacteria identified as Propionibacterium acnes.

Bacteroides fragilis = assay: MIC anaerobic bacteria, agar-dilution; type: cell-based
Bacteroides corrodens = assay: MIC anaerobic bacteria, agar-dilution; type: cell-based; conditions: Bacteroides corrodens 1874
Propionibacterium acnes [4] = assay: MIC anaerobic bacteria, agar-dilution; type: cell-based; conditions: Propionibacterium acnes 79; agar-dilution (Table 9)
Solubility in solvents = type: physicochemical; conditions: qualitative
Source text: As many as seven antibiotic factors are recovered from the fermentation and are obtained as a mixture, the A41030 complex. It will be recognized that the ratio of the factors in the A41030 complex will vary, depending upon the fermentation conditions used. The individual factors A, B, C, D, E, F, and G are separated and isolated as individual compounds, as hereinafter described.

[5] = system: Bacteroides melaninogenicus; assay: MIC anaerobic bacteria, agar-dilution; type: cell-based; conditions: Bacteroides melaninogenicus 2736
[6] = system: Peptostreptococcus anaerobius; assay: MIC anaerobic bacteria, agar-dilution; type: cell-based; conditions: Peptostreptococcus anaerobius 1428
Fusobacterium symbiosum = assay: MIC anaerobic bacteria, agar-dilution; type: cell-based; conditions: Fusobacterium symbiosum 1470
[7] = Electrometric titration (pKa); type: physicochemical; conditions: electrometric titration in 66% dimethylformamide in water; for possibly additional pKa's: stated as possible
Source text: Antibiotic A41030 factor A is a white, crystalline solid.

Streptococcus pneumoniae = assay: MIC aerobic bacteria, standard agar-dilution assay; type: cell-based; conditions: Streptococcus pneumoniae Park I, 24 hours
[8] = system: Streptococcus sp. Group D; assay: MIC aerobic bacteria, standard agar-dilution assay; type: cell-based
[9] = system: Peptococcus asaccharolyticus; assay: MIC anaerobic bacteria, agar-dilution; type: cell-based; conditions: Peptococcus asaccharolyticus 1302
[10] = system: Staphylococcus epidermidis; assay: MIC aerobic bacteria, standard agar-dilution assay; type: cell-based; conditions: Staphylococcus epidermidis EPI1, 24 hours
Clostridium difficile [11] = assay: MIC against Clostridium difficile strains, agar-dilution; type: cell-based
Source text: The A41030 antibiotic factors A, B, C, D, E, F, and G, are also active against a number of strains of Clostridium difficile, as determined by the agardilution method.

Haemophilus influenzae = assay: MIC aerobic bacteria, standard agar-dilution assay; type: cell-based
Clostridium difficile [12] = assay: MIC anaerobic bacteria, agar-dilution; type: cell-based; conditions: Clostridium difficile 2994; agar-dilution (Table 9)
Staphylococcus aureus = assay: MIC aerobic bacteria, standard agar-dilution assay; type: cell-based; conditions: Staphylococcus aureus S13E; agar-dilution, 24 hours
[13] = system: Peptostreptococcus intermedius; assay: MIC anaerobic bacteria, agar-dilution; type: cell-based; conditions: Peptostreptococcus intermedius 1264
Eubacterium aerofaciens = assay: MIC anaerobic bacteria, agar-dilution; type: cell-based; conditions: Eubacterium aerofaciens 1235
[14] = Streptococcus sp. Group D 9960, 24 hours
[15] = Streptococcus sp. Group D X66, 24 hours

## A41030 factor C
Clostridium septicum
  MIC: 8 µg/mL
Streptococcus pyogenes
  MIC: 1 µg/mL
[1]
  MIC: 16 µg/mL
Bacteroides vulgatis
  MIC: 32 µg/mL
S. pyogenes
  in vivo oral activity: > 300 mg./kg.×2
Peptococcus prevoti
  MIC: ≤ 0.25 µg/mL
[2]
  MIC: 64 µg/mL
Clostridium perfringens
  MIC: 1.0 µg/mL
Propionibacterium acnes [3]; P. acnes strain 104
  MIC: 0.25 µg/mL
Propionibacterium acnes [3]; P. acnes strain 5170
  MIC: ≤ 0.03 µg/mL
Propionibacterium acnes [3]; P. acnes strain 5176
  MIC: ≤ 0.03 µg/mL
Propionibacterium acnes [3]; P. acnes strain 5187
  MIC: 0.06 µg/mL
Propionibacterium acnes [3]; P. acnes strain 5197
  MIC: ≤ 0.03 µg/mL
Propionibacterium acnes [3]; P. acnes strain 5227
  MIC: 0.06 µg/mL
Propionibacterium acnes [3]; P. acnes strain 5228
  MIC: 1.0 µg/mL
Propionibacterium acnes [3]; P. acnes strain 5229
  MIC: 0.5 µg/mL
Propionibacterium acnes [3]; P. acnes strain 5246
  MIC: 0.06 µg/mL
Propionibacterium acnes [3]; P. acnes strain 5292
  MIC: 0.06 µg/mL
Bacteroides fragilis; Bacteroides fragilis 1877
  MIC: 16 µg/mL
Bacteroides fragilis; Bacteroides fragilis 1936B
  MIC: 32 µg/mL
Bacteroides corrodens
  MIC: 32 µg/mL
Propionibacterium acnes [4]
  MIC: ≤ 0.25 µg/mL
Solubility in solvents
  solubility (solvents): soluble in the same solvents as factor A
[5]
  MIC: 4 µg/mL
[6]
  MIC: ≤ 0.25 µg/mL
Fusobacterium symbiosum
  MIC: 1.0 µg/mL
[7]
  pKa, second titratable group: ~7.1
  possibly additional pKa's: > 10
Streptococcus pneumoniae
  MIC: 1 µg/mL
[8]; [14]
  MIC: 4 µg/mL
[8]; [15]
  MIC: 2 µg/mL
[9]
  MIC: ≤ 0.25 µg/mL
[10]
  MIC: 0.5 µg/mL
Clostridium difficile [11]; Clostridium difficile 78
  MIC: 1.0 µg/mL
Clostridium difficile [11]; Clostridium difficile 107B
  MIC: 1.0 µg/mL
Clostridium difficile [11]; Clostridium difficile 111F
  MIC: 2 µg/mL
Clostridium difficile [11]; Clostridium difficile 1153
  MIC: 2 µg/mL
Clostridium difficile [11]; Clostridium difficile 2634
  MIC: 2 µg/mL
Clostridium difficile [11]; Clostridium difficile 3424-5B
  MIC: 1.0 µg/mL
Clostridium difficile [11]; Clostridium difficile 3816
  MIC: 2 µg/mL
Clostridium difficile [11]; Clostridium difficile 3950D
  MIC: 2 µg/mL
Clostridium difficile [11]; Clostridium difficile 6890
  MIC: 2 µg/mL
Clostridium difficile [11]; Clostridium difficile 8484
  MIC: 1.0 µg/mL
Clostridium difficile [11]; Clostridium difficile A-194
  MIC: 2 µg/mL
Clostridium difficile [11]; Clostridium difficile A-195
  MIC: 1.0 µg/mL
Clostridium difficile [11]; Clostridium difficile A-196
  MIC: 2 µg/mL
Clostridium difficile [11]; Clostridium difficile A-279
  MIC: 2 µg/mL
Clostridium difficile [11]; Clostridium difficile A-280
  MIC: 1.0 µg/mL
Clostridium difficile [11]; Clostridium difficile A-281
  MIC: 2 µg/mL
Clostridium difficile [11]; Clostridium difficile WAL-2112
  MIC: 2 µg/mL
Clostridium difficile [11]; Clostridium difficile WAL-3657
  MIC: 2 µg/mL
Clostridium difficile [11]; Clostridium difficile WAL-4268
  MIC: 1.0 µg/mL
Haemophilus influenzae; Haemophilus influenzae 251, 24 hours
  MIC: 4 µg/mL
Haemophilus influenzae; Haemophilus influenzae Brun, 24 hours
  MIC: 16 µg/mL
Clostridium difficile [12]
  MIC: 16 µg/mL

## A41030 factor F
Clostridium septicum
  MIC: 1.0 µg/mL
Streptococcus pyogenes
  MIC: 2 µg/mL
[1]
  MIC: 1.0 µg/mL
Bacteroides vulgatis
  MIC: 32 µg/mL
Peptococcus prevoti
  MIC: 32 µg/mL
[2]
  MIC: 64 µg/mL
Staphylococcus aureus
  MIC: 1 µg/mL
Clostridium perfringens
  MIC: 1.0 µg/mL
Bacteroides fragilis; Bacteroides fragilis 111
  MIC: 32 µg/mL
Bacteroides fragilis; Bacteroides fragilis 1877
  MIC: 32 µg/mL
Bacteroides fragilis; Bacteroides fragilis 1936B
  MIC: 32 µg/mL
Bacteroides corrodens
  MIC: 32 µg/mL
Propionibacterium acnes [4]
  MIC: 1.0 µg/mL
Solubility in solvents
  solubility (solvents): soluble in the same solvents as factor A
[5]
  MIC: 1.0 µg/mL
[6]
  MIC: 32 µg/mL
Fusobacterium symbiosum
  MIC: 1.0 µg/mL
[13]
  MIC: 1.0 µg/mL
[7]
  possibly additional pKa's: > 10
Streptococcus pneumoniae
  MIC: 2 µg/mL
[8]; [14]
  MIC: 4 µg/mL
[8]; [15]
  MIC: 4 µg/mL
[9]
  MIC: ≤ 0.25 µg/mL
[10]
  MIC: 0.25 µg/mL
Clostridium difficile [11]; Clostridium difficile 78
  MIC: 1.0 µg/mL
Clostridium difficile [11]; Clostridium difficile 107B
  MIC: 1.0 µg/mL
Clostridium difficile [11]; Clostridium difficile 111F
  MIC: 2 µg/mL
Clostridium difficile [11]; Clostridium difficile 1153
  MIC: 2 µg/mL
Clostridium difficile [11]; Clostridium difficile 2634
  MIC: 2 µg/mL
Clostridium difficile [11]; Clostridium difficile 3424-5B
  MIC: 1.0 µg/mL
Clostridium difficile [11]; Clostridium difficile 3816
  MIC: 1.0 µg/mL
Clostridium difficile [11]; Clostridium difficile 3950D
  MIC: 1.0 µg/mL
Clostridium difficile [11]; Clostridium difficile 6890
  MIC: 1.0 µg/mL
Clostridium difficile [11]; Clostridium difficile 8484
  MIC: 1.0 µg/mL
Clostridium difficile [11]; Clostridium difficile A-194
  MIC: 1.0 µg/mL
Clostridium difficile [11]; Clostridium difficile A-195
  MIC: 1.0 µg/mL
Clostridium difficile [11]; Clostridium difficile A-196
  MIC: 2 µg/mL
Clostridium difficile [11]; Clostridium difficile A-279
  MIC: 1.0 µg/mL
Clostridium difficile [11]; Clostridium difficile A-280
  MIC: 1.0 µg/mL
Clostridium difficile [11]; Clostridium difficile A-281
  MIC: 2 µg/mL
Clostridium difficile [11]; Clostridium difficile WAL-2112
  MIC: 1.0 µg/mL
Clostridium difficile [11]; Clostridium difficile WAL-3657
  MIC: 1.0 µg/mL
Clostridium difficile [11]; Clostridium difficile WAL-4268
  MIC: 1.0 µg/mL
Haemophilus influenzae; Haemophilus influenzae 76, 24 hours
  MIC: 32 µg/mL
Haemophilus influenzae; Haemophilus influenzae C.L., 24 hours
  MIC: 32 µg/mL
Clostridium difficile [12]
  MIC: 1.0 µg/mL
Eubacterium aerofaciens
  MIC: 1.0 µg/mL

— patent US4695545A, “Culture and process for producing A41030 antibiotics” (Eli Lilly and Company, priority 1984, dated 1987)
